Laboratory results: patent publication US12059462B2, “Composition containing influenza vaccine” (priority 2018, dated 2024)

How the values were obtained:
[1] = test system: synthetic peptide (H3) corresponding to a portion (long alpha helix) of the stem portion; settings: mouse, in vivo, ip
[2] = test system: LAH binding monoclonal antibody (#2, #4 and #5); experiment: Binding capacity of antibody to LAH epitope, order of formalin treatment; settings: FIG. 15; H3N2 strain X31; formalin treatment after (Post-fix) or before (Pre-fix) the acidic treatment

Substance: membrane fusion-type H3N2 HA split vaccine: HA split vaccine of H3N2 influenza virus (strain X31) subjected to acidic treatment (pH 5.0), then formalin treatment
- titer of the anti-LAH antibody in the sera [1]: higher titer of the anti-LAH antibody than the membrane fusion-type split vaccine (Pre-fix)
- binding of the LAH binding monoclonal antibody to the vaccine [2]: more strongly than to the vaccine (Pre-fix)
